{"source": "the kinase profiling compilation of Christmann-Franck et al. (2016)", "test_in_all_cases": "radiometric filter-binding kinase assay, Kinaseprofiler", "key": {"[1]": {"molecular_target": "ABL2 (human) (UniProt P42684)", "settings": "ATP 45 µM"}, "[2]": {"molecular_target": "CAMK1 (human) (UniProt Q14012)", "settings": "ATP 200 µM"}, "[3]": {"molecular_target": "CDK2 CCNE1 (human) (UniProt P24941+P24864)", "settings": "ATP 120 µM"}, "[4]": {"molecular_target": "CHEK2 (human) (UniProt O96017)", "settings": "ATP 70 µM"}, "[5]": {"molecular_target": "CSK (human) (UniProt P41240)", "sequence (P41240 whole entry, looked up)": "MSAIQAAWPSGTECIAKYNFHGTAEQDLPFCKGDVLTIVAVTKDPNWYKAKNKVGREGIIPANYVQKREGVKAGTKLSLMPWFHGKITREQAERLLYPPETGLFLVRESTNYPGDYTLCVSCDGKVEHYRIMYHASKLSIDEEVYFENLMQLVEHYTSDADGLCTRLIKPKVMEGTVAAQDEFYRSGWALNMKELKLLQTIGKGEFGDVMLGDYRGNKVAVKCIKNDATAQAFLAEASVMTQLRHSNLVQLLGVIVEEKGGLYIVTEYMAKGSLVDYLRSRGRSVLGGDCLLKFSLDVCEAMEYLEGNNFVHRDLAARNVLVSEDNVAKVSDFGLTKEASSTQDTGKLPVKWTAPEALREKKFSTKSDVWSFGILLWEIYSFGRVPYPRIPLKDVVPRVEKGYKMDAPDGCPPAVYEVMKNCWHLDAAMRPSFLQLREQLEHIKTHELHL", "settings": "ATP 15 µM"}, "[6]": {"molecular_target": "CSNK2A2 (human) (UniProt P19784)", "sequence (P19784 whole entry, looked up)": "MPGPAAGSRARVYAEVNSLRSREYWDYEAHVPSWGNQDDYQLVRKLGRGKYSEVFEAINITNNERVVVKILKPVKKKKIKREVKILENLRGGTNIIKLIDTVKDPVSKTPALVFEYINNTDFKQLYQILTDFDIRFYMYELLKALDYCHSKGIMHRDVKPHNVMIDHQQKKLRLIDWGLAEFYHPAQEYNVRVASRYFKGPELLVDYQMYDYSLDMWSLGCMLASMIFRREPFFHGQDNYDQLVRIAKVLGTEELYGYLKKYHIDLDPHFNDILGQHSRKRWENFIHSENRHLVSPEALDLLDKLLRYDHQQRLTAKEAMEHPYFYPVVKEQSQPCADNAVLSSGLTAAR", "settings": "ATP 10 µM"}, "[7]": {"molecular_target": "DAPK3 (human) (UniProt O43293)", "settings": "ATP 15 µM"}, "[8]": {"molecular_target": "DCLK2 (human) (UniProt Q8N568)", "settings": "ATP 90 µM"}, "[9]": {"molecular_target": "DMPK (human) (UniProt Q09013)", "sequence (Q09013 whole entry, looked up)": "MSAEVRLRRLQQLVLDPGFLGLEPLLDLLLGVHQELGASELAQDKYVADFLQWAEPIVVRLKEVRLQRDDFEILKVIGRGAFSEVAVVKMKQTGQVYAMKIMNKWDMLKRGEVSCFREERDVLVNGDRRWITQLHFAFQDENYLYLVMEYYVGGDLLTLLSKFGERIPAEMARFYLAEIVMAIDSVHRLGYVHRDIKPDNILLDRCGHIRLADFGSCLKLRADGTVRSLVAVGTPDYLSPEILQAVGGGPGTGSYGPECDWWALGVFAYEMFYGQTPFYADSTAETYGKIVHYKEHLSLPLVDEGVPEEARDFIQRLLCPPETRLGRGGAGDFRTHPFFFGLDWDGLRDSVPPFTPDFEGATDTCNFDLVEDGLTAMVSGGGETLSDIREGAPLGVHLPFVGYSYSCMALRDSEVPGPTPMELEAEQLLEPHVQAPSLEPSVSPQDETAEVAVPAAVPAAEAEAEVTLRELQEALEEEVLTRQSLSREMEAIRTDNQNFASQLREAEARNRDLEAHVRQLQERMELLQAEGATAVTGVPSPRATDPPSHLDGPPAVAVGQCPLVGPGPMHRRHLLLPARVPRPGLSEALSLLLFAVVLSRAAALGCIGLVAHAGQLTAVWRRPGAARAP", "settings": "ATP 10 µM"}, "[10]": {"molecular_target": "EPHA3 (human) (UniProt P29320)", "settings": "ATP 120 µM"}, "[11]": {"molecular_target": "ERBB4 (human) (UniProt Q15303)", "settings": "ATP 15 µM"}, "[12]": {"molecular_target": "FLT1 (human) (UniProt P17948)", "sequence (P17948 whole entry, looked up)": "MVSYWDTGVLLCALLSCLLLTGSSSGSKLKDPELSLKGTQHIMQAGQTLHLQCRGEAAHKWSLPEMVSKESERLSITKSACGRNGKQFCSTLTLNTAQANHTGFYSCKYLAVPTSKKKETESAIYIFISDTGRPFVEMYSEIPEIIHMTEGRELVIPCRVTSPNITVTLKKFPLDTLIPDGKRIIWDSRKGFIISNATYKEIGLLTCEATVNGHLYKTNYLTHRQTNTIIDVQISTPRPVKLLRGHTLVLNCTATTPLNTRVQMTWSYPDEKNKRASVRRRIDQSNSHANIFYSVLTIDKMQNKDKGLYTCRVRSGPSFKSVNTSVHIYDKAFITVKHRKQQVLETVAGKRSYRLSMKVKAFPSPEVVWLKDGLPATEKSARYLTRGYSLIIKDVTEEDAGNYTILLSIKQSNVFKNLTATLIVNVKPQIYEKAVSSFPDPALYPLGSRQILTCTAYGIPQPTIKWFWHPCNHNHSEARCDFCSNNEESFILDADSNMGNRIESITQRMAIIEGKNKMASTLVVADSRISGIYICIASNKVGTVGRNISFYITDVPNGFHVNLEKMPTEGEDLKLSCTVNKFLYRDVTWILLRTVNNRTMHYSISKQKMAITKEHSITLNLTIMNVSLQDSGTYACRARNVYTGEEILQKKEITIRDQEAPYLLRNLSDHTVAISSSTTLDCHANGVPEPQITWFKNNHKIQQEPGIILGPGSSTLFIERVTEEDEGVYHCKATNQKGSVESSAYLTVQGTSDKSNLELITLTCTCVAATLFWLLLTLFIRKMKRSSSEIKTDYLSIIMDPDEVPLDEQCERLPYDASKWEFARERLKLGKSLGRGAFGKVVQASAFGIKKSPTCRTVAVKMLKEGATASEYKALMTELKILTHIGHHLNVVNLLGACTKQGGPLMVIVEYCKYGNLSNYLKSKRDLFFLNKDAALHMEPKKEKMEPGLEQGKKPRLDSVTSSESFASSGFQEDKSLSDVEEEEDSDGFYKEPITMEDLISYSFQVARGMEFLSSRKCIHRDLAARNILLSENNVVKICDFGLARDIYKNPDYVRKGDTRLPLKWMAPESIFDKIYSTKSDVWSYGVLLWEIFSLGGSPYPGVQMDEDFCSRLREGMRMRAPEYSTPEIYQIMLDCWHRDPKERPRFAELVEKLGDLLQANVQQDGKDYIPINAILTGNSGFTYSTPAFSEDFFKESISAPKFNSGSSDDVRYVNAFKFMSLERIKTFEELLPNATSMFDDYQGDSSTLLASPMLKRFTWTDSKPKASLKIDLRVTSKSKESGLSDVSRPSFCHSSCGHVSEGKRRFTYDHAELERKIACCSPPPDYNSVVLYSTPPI", "settings": "ATP 200 µM"}, "[13]": {"molecular_target": "GCK (human) (UniProt Q12851)", "sequence (Q12851 whole entry, looked up)": "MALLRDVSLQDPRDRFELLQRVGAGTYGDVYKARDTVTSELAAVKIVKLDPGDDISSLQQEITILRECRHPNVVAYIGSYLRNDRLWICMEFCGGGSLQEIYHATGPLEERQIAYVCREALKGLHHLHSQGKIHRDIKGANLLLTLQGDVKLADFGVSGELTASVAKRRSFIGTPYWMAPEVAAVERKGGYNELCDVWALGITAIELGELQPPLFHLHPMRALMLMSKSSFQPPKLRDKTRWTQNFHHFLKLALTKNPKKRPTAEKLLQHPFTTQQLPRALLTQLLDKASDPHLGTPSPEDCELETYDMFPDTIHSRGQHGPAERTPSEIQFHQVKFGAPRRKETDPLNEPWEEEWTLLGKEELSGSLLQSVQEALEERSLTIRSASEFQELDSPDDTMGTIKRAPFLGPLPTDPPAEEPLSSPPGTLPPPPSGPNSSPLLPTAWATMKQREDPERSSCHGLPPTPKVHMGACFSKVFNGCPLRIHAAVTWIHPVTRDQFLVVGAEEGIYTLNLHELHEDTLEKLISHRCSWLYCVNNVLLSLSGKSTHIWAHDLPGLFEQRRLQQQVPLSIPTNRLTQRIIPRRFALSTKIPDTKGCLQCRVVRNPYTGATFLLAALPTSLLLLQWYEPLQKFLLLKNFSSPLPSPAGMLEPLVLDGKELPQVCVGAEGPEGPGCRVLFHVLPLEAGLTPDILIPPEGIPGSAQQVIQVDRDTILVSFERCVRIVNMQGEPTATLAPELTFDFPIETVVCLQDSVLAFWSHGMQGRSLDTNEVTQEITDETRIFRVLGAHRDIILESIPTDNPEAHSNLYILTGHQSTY", "settings": "ATP 200 µM"}, "[14]": {"molecular_target": "KDR (human) (UniProt P35968)", "settings": "ATP 90 µM"}, "[15]": {"molecular_target": "LCK (human) (UniProt P06239)", "sequence (P06239 whole entry, looked up)": "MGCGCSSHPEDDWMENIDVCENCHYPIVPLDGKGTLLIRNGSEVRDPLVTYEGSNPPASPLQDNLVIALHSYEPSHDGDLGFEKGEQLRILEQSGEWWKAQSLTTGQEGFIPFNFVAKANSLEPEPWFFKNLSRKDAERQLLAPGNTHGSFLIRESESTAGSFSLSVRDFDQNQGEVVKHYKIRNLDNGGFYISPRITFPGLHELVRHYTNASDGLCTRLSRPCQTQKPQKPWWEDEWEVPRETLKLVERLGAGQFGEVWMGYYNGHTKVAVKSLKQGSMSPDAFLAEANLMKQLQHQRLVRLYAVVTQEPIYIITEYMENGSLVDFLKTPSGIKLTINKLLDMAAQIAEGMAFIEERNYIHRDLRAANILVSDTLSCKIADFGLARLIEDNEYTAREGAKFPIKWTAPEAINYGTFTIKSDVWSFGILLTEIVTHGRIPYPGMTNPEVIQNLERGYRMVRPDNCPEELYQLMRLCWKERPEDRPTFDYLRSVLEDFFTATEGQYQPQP", "settings": "ATP 90 µM"}, "[16]": {"molecular_target": "MAPK1 (human) (UniProt P28482)", "settings": "ATP 155 µM"}, "[17]": {"molecular_target": "MAPK12 (human) (UniProt P53778)", "settings": "ATP 15 µM"}, "[18]": {"molecular_target": "MAPK8 (human) (UniProt P45983)", "settings": "ATP 45 µM"}, "[19]": {"molecular_target": "NEK2 (human) (UniProt P51955)", "settings": "ATP 120 µM"}, "[20]": {"molecular_target": "NTRK2 (human) (UniProt Q16620)", "settings": "ATP 90 µM"}, "[21]": {"molecular_target": "NUAK1 (human) (UniProt O60285)", "settings": "ATP 45 µM"}, "[22]": {"molecular_target": "PDPK1 (human) (UniProt O15530)", "settings": "ATP 10 µM"}, "[23]": {"molecular_target": "PRKACA (human) (UniProt P17612)", "settings": "ATP 10 µM"}, "[24]": {"molecular_target": "PRKCA (human) (UniProt P17252)", "settings": "ATP 45 µM"}, "[25]": {"molecular_target": "PRKCG (human) (UniProt P05129)", "settings": "ATP 15 µM"}, "[26]": {"molecular_target": "RIPK2 (human) (UniProt O43353)", "settings": "ATP 120 µM"}, "[27]": {"molecular_target": "ROCK2 (human) (UniProt O75116)", "settings": "ATP 15 µM"}, "[28]": {"molecular_target": "RPS6KA4 KD1 KD2 (human) (UniProt O75676)", "settings": "ATP 45 µM"}, "[29]": {"molecular_target": "STK11 (human) (UniProt Q15831)", "settings": "ATP 155 µM"}, "[30]": {"molecular_target": "SYK (human) (UniProt P43405)", "settings": "ATP 15 µM"}, "[31]": {"molecular_target": "WNK3 (human) (UniProt Q9BYP7)", "settings": "ATP 200 µM"}, "[32]": {"molecular_target": "YES1 (human) (UniProt P07947)", "settings": "ATP 45 µM"}, "[33]": {"molecular_target": "ZAP70 (human) (UniProt P43403)", "settings": "ATP 15 µM"}}, "note": "Values joined by “and” are separate entries in the source; they are usually repeats but may differ in a detail not shown here. Equal values may be shown once.", "data": [{"molecule": "O=C1Nc2ccccc2/C1=C1\\Nc2ccccc2\\C1=N/O", "values": [{"measurement": "residual activity", "setting": "[1]; compound 1.0 µM", "value": 30, "unit": "%"}, {"measurement": "residual activity", "setting": "[1]; compound 10.0 µM", "value": 28, "unit": "%"}, {"measurement": "residual activity", "setting": "[2]; compound 1.0 µM", "value": 72, "unit": "%"}, {"measurement": "residual activity", "setting": "[2]; compound 10.0 µM", "value": 21, "unit": "%"}, {"measurement": "residual activity", "setting": "[3]; compound 1.0 µM", "value": 6, "unit": "%"}, {"measurement": "residual activity", "setting": "[3]; compound 10.0 µM", "value": -1, "unit": "%"}, {"measurement": "residual activity", "setting": "[4]; compound 1.0 µM", "value": 13, "unit": "%"}, {"measurement": "residual activity", "setting": "[4]; compound 10.0 µM", "value": 2, "unit": "%"}, {"measurement": "residual activity", "setting": "[5]; compound 1.0 µM", "value": 101, "unit": "%"}, {"measurement": "residual activity", "setting": "[5]; compound 10.0 µM", "value": 78, "unit": "%"}, {"measurement": "residual activity", "setting": "[6]; compound 1.0 µM", "value": 102, "unit": "%"}, {"measurement": "residual activity", "setting": "[6]; compound 10.0 µM", "value": 58, "unit": "%"}, {"measurement": "residual activity", "setting": "[7]; compound 1.0 µM", "value": 81, "unit": "%"}, {"measurement": "residual activity", "setting": "[7]; compound 10.0 µM", "value": 37, "unit": "%"}, {"measurement": "residual activity", "setting": "[8]; compound 1.0 µM", "value": 119, "unit": "%"}, {"measurement": "residual activity", "setting": "[8]; compound 10.0 µM", "value": 74, "unit": "%"}, {"measurement": "residual activity", "setting": "[9]; compound 1.0 µM", "value": 109, "unit": "%"}, {"measurement": "residual activity", "setting": "[9]; compound 10.0 µM", "value": 83, "unit": "%"}, {"measurement": "residual activity", "setting": "[10]; compound 1.0 µM", "value": 58, "unit": "%"}, {"measurement": "residual activity", "setting": "[10]; compound 10.0 µM", "value": 9, "unit": "%"}, {"measurement": "residual activity", "setting": "[11]; compound 1.0 µM", "value": 107, "unit": "%"}, {"measurement": "residual activity", "setting": "[11]; compound 10.0 µM", "value": 99, "unit": "%"}, {"measurement": "residual activity", "setting": "[12]; compound 1.0 µM", "value": 1, "unit": "%"}, {"measurement": "residual activity", "setting": "[12]; compound 10.0 µM", "value": 0, "unit": "%"}, {"measurement": "residual activity", "setting": "[13]; compound 1.0 µM", "value": 13, "unit": "%"}, {"measurement": "residual activity", "setting": "[13]; compound 10.0 µM", "value": 1, "unit": "%"}, {"measurement": "residual activity", "setting": "[14]; compound 1.0 µM", "value": 4, "unit": "%"}, {"measurement": "residual activity", "setting": "[14]; compound 10.0 µM", "value": 1, "unit": "%"}, {"measurement": "residual activity", "setting": "[15]; compound 1.0 µM", "value": "13% and 22%"}, {"measurement": "residual activity", "setting": "[15]; compound 10.0 µM", "value": "6% and 17%"}, {"measurement": "residual activity", "setting": "[16]; compound 1.0 µM", "value": 104, "unit": "%"}, {"measurement": "residual activity", "setting": "[16]; compound 10.0 µM", "value": 103, "unit": "%"}, {"measurement": "residual activity", "setting": "[17]; compound 1.0 µM", "value": 95, "unit": "%"}, {"measurement": "residual activity", "setting": "[17]; compound 10.0 µM", "value": 84, "unit": "%"}, {"measurement": "residual activity", "setting": "[18]; compound 1.0 µM", "value": 63, "unit": "%"}, {"measurement": "residual activity", "setting": "[18]; compound 10.0 µM", "value": 70, "unit": "%"}, {"measurement": "residual activity", "setting": "[19]; compound 1.0 µM", "value": 93, "unit": "%"}, {"measurement": "residual activity", "setting": "[19]; compound 10.0 µM", "value": 83, "unit": "%"}, {"measurement": "residual activity", "setting": "[20]; compound 1.0 µM", "value": 0, "unit": "%"}, {"measurement": "residual activity", "setting": "[20]; compound 10.0 µM", "value": 0, "unit": "%"}, {"measurement": "residual activity", "setting": "[21]; compound 1.0 µM", "value": 4, "unit": "%"}, {"measurement": "residual activity", "setting": "[21]; compound 10.0 µM", "value": 7, "unit": "%"}, {"measurement": "residual activity", "setting": "[22]; compound 1.0 µM", "value": 53, "unit": "%"}, {"measurement": "residual activity", "setting": "[22]; compound 10.0 µM", "value": 9, "unit": "%"}, {"measurement": "residual activity", "setting": "[23]; compound 1.0 µM", "value": 90, "unit": "%"}, {"measurement": "residual activity", "setting": "[23]; compound 10.0 µM", "value": 54, "unit": "%"}, {"measurement": "residual activity", "setting": "[24]; compound 1.0 µM", "value": 93, "unit": "%"}, {"measurement": "residual activity", "setting": "[24]; compound 10.0 µM", "value": 86, "unit": "%"}, {"measurement": "residual activity", "setting": "[25]; compound 1.0 µM", "value": 92, "unit": "%"}, {"measurement": "residual activity", "setting": "[25]; compound 10.0 µM", "value": 73, "unit": "%"}, {"measurement": "residual activity", "setting": "[26]; compound 1.0 µM", "value": 60, "unit": "%"}, {"measurement": "residual activity", "setting": "[26]; compound 10.0 µM", "value": 27, "unit": "%"}, {"measurement": "residual activity", "setting": "[27]; compound 1.0 µM", "value": 85, "unit": "%"}, {"measurement": "residual activity", "setting": "[27]; compound 10.0 µM", "value": 82, "unit": "%"}, {"measurement": "residual activity", "setting": "[28]; compound 1.0 µM", "value": 32, "unit": "%"}, {"measurement": "residual activity", "setting": "[28]; compound 10.0 µM", "value": 4, "unit": "%"}, {"measurement": "residual activity", "setting": "[29]; compound 1.0 µM", "value": 83, "unit": "%"}, {"measurement": "residual activity", "setting": "[29]; compound 10.0 µM", "value": 44, "unit": "%"}, {"measurement": "residual activity", "setting": "[30]; compound 1.0 µM", "value": 49, "unit": "%"}, {"measurement": "residual activity", "setting": "[30]; compound 10.0 µM", "value": 60, "unit": "%"}, {"measurement": "residual activity", "setting": "[31]; compound 1.0 µM", "value": 89, "unit": "%"}, {"measurement": "residual activity", "setting": "[31]; compound 10.0 µM", "value": 60, "unit": "%"}, {"measurement": "residual activity", "setting": "[32]; compound 1.0 µM", "value": 17, "unit": "%"}, {"measurement": "residual activity", "setting": "[32]; compound 10.0 µM", "value": 0, "unit": "%"}, {"measurement": "residual activity", "setting": "[33]; compound 1.0 µM", "value": 79, "unit": "%"}, {"measurement": "residual activity", "setting": "[33]; compound 10.0 µM", "value": 91, "unit": "%"}]}]}
